Source: patent publication US20150216806A1, “LAXATIVE COMPOSITIONS AND METHODS FOR TREATING CONSTIPATION AND RELATED GASTROINTESTINAL DISEASES AND CONDITIONS” (SALIX PHARMACEUTICALS, INC., priority 2012, published 2015)

Tested on: patient with chronic constipation
Assay: Example 7: case report, bisoxatin added to colchicine in chronic constipation
Assay type: in vivo, human
Details: 1 mg in the morning and 1.5 in the evening; still missing a day here and there
Experimental: They were given added bisoxatin of 120 mg twice daily. […] They were going too well however and the bisoxatin had to be cut back 120 mg mane. For a week or so they were able to take the bisoxatin 120 in the morning and every second day 120 at night. They continued with the treatment for 3 or 4 weeks to date.

COc1cc2c(c(OC)c1OC)-c1ccc(OC)c(=O)cc1[C@@H](NC(C)=O)CC2 [colchicine]
response of constipation to colchicine alone: did not respond
